From PMC12051620, “Molecular basis underlying the specificity of an antagonist AA92593 for mammalian melanopsins” (The Journal of Biological Chemistry, 2025)
pIC50: −log10 of the molar value.

Legend:
[1] = system: lanceolatum melanopsin WT; assay: GsX GloSensor assay with Gsα/q11; assay type: cell-based, Branchiostoma lanceolatum; settings: 16.7 μM AA92593, COS-1 cells
From the text: Non-mammalian-type melanopsins were successfully converted into AA92593-susceptible types by introducing Phe-94^2.61/Ser-188^ECL2/Ser-269^6.52 or Phe-207^5.42 (Fig. 6). We attempted to extend the functional conversion targets to invertebrate melanopsin (see Fig. S2). […] We assessed the susceptibility of belcheri and lanceolatum melanopsins to AA92593 using the GsX GloSensor assay with Gsα/q11. In the absence of AA92593, the belcheri melanopsin produced smaller light-dependent cAMP responses than the other melanopsins assessed in this study (Fig. 7A), whereas the lanceolatum melanopsin produced robust cAMP responses upon light illumination (Fig. 7B). […] On the other hand, responses by the lanceolatum melanopsin were insensitive to the antagonist (Fig. 7B), similar to non-mammalian-type melanopsins (Fig. 6, A and D). […]
For GloSensor assay, opsins, GloSensor assay sensor (coded by pGlo-22F), and NanoBiT-tagged G proteins were transiently expressed in COS-1 cells (kindly provided from Dr David Farrens, Oregon Health and Science University) using PEI as described previously ([24], [52]). […] For GFP-fluorescence microscopy, a 35-mm cell culture dish (IWAKI) was transfected with 2 μg melanopsin-GFP plasmid and 8 μg PEI in 400 μl Opti-mem and 1.2 ml D-MEM. […]

[2] = biological target: T1, human melanopsin (Homo sapiens, UniProt Q9UHM6); parameters: the C-terminal amino acid residues (94, 140, 200, 214, 296, and 308 residues); expressed in transfected cells; method as in PMID 23974117; settings: CHO cells; calcium imaging; 9-cis-retinal incubation several minutes; read-out: IC50 reported in the previous study; cited from earlier work
T1 sequence (Q9UHM6 1-384 limits assumed): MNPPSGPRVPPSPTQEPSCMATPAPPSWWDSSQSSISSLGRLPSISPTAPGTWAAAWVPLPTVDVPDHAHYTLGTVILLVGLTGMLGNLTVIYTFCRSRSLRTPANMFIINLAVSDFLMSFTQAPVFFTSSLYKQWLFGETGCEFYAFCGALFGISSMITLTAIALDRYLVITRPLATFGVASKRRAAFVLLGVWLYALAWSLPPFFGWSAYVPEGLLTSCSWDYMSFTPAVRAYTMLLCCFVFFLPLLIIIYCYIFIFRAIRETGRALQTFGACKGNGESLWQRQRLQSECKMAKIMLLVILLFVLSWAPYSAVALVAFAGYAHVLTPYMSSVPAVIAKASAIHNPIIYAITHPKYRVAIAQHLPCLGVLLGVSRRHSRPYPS

## COc1ccc(S(=O)(=O)N2CCCCC2)cc1C [AA92593]
[1]
  sensitivity of light-induced responses to the antagonist: insensitive
[2]
  pIC50: 6.18
